One assay has as its system ATF4 luciferase reporter. Put plainly: ATF4-Luc assay in HEK293T cells carrying the ATF4 luciferase reporter (in vitro model of VWMD). Type of assay: cell-based, human. The following applies: 1 μg/mL tunicamycin, 7 hours, luminescence (One Glo). The method, boiled down:
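Stable HEK293T line with human ATF4 5′-UTR–firefly luciferase reporter treated with 1 μg/mL tunicamycin plus 200 nM compound for 7 h. Luminescence read; EC50 derived.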
(In a reporter assay the amount or activity of a reporter protein is the signal.)
For `O=C(COc1ccc(Cl)c(F)c1)NC12CC(C(=O)NCCc3c[nH]c4ccccc34)(C1)C2` [Compound 194], the EC50 is under 250 nM.

Still in this assay, the particulars now being: Homo sapiens, HEK-293T, 1 μg/mL tunicamycin, 7 hours, luminescence (One Glo).
For `COc1ccc(CNC(=O)C23CC(NC(=O)COc4ccc(Cl)c(F)c4)(C2)C3)cc1F` [Compound 173, 3-[2-(4-chloro-3-fluorophenoxy)acetamido]-N-[(3-fluoro-4-methoxyphenyl)methyl]bicyclo[1.1.1]pentane-1-carboxamide], the EC50 was over 2000 nM.

With `Cc1ccc(F)c(CNC(=O)C23CC(NC(=O)COc4ccc(Cl)c(F)c4)(C2)C3)c1` [Compound 174, 3-[2-(4-chloro-3-fluorophenoxy)acetamido]-N-[(2-fluoro-5-methylphenyl)methyl]bicyclo[1.1.1]pentane-1-carboxamide], the EC50 was over 2000 nM. On the same count and under the same terms, as for `CN(Cc1ccccc1)C(=O)C12CC(NC(=O)COc3ccc(Cl)c(F)c3)(C1)C2` [Compound 175, N-benzyl-3-[2-(4-chloro-3-fluorophenoxy)acetamido]-N-methylbicyclo[1.1.1]pentane-1-carboxamide], the figure is over 2000 nM. Same read-out and setting: as for `Cc1csc(CNC(=O)C23CC(NC(=O)COc4ccc(Cl)c(F)c4)(C2)C3)n1` [Compound 176, 3-[2-(4-chloro-3-fluorophenoxy)acetamido]-N-[(4-methyl-1,3-thiazol-2-yl)methyl]bicyclo[1.1.1]pentane-1-carboxamide], the figure is over 2000 nM; as for `Cc1cnc(CNC(=O)C23CC(NC(=O)COc4ccc(Cl)c(F)c4)(C2)C3)o1` [Compound 177, 3-[2-(4-chloro-3-fluorophenoxy)acetamido]-N-[(5-methyl-1,3-oxazol-2-yl)methyl]bicyclo[1.1.1]pentane-1-carboxamide], over 2000 nM. Still for that read-out and setting: the same measure for `Cc1cnc(CNC(=O)C23CC(NC(=O)COc4ccc(Cl)c(F)c4)(C2)C3)s1` [Compound 178, 3-[2-(4-chloro-3-fluorophenoxy)acetamido]-N-[(5-methyl-1,3-thiazol-2-yl)methyl]bicyclo[1.1.1]pentane-1-carboxamide]: over 2000 nM; for `Cn1ccc(CNC(=O)C23CC(NC(=O)COc4ccc(Cl)c(F)c4)(C2)C3)n1` [Compound 179, 3-[2-(4-chloro-3-fluorophenoxy)acetamido]-N-[(1-methyl-1H-pyrazol-3-yl)methyl]bicyclo[1.1.1]pentane-1-carboxamide]: over 2000 nM. On to `O=C(COc1ccc(Cl)c(F)c1)NC12CC(C(=O)NCc3ccc(F)c(C(F)(F)F)c3)(C1)C2` [Compound 180, 3-[2-(4-chloro-3-fluorophenoxy)acetamido]-N-{[4-fluoro-3-(trifluoromethyl)phenyl]methyl}bicyclo [1.1.1]pentane-1-carboxamide], for which the EC50 was over 2000 nM.

For `O=C(COc1ccc(Cl)c(F)c1)NC12CC(C(=O)NCc3c(F)cc(Cl)cc3F)(C1)C2` [Compound 181, N-[(4-chloro-2,6-difluorophenyl)methyl]-3-[2-(4-chloro-3-fluorophenoxy)acetamido]bicyclo[1.1.1]pentane-1-carboxamide], the EC50 was over 2000 nM.

`CCOc1ccccc1CNC(=O)C12CC(NC(=O)COc3ccc(Cl)c(F)c3)(C1)C2` [Compound 182, 3-[2-(4-chloro-3-fluorophenoxy)acetamido]-N-[(2-ethoxyphenyl)methyl]bicyclo[1.1.1]pentane-1-carboxamide]: the EC50 was over 2000 nM. As to `C[C@H](NC(=O)C12CC(NC(=O)COc3ccc(Cl)c(F)c3)(C1)C2)c1ccc(Cl)cc1` [Compound 183, 3-[2-(4-chloro-3-fluorophenoxy)acetamido]-N-[(1S)-1-(4-chlorophenyl)ethyl]bicyclo[1.1.1]pentane-1-carboxamide], the EC50 was over 2000 nM. Turning to `Cn1nccc1CNC(=O)C12CC(NC(=O)COc3ccc(Cl)c(F)c3)(C1)C2` [Compound 184, 3-[2-(4-chloro-3-fluorophenoxy)acetamido]-N-[(1-methyl-1H-pyrazol-5-yl)methyl]bicyclo[1.1.1]pentane-1-carboxamide], the EC50 is over 2000 nM. Consider `O=C(COc1ccc(Cl)c(F)c1)NC12CC(C(=O)NCc3ccc(F)c(F)c3)(C1)C2` [Compound 185, 3-[2-(4-chloro-3-fluorophenoxy)acetamido]-N-[(3,4-difluorophenyl)methyl]bicyclo[1.1.1]pentane-1-carboxamide], for which the EC50 was over 2000 nM.

`Cn1ccnc1CNC(=O)C12CC(NC(=O)COc3ccc(Cl)c(F)c3)(C1)C2` [Compound 186, 3-[2-(4-chloro-3-fluorophenoxy)acetamido]-N-[(1-methyl-1H-imidazol-2-yl)methyl]bicyclo[1.1.1]pentane-1-carboxamide]: the EC50 was over 2000 nM.

On to `Cc1cccc([C@H](C)NC(=O)C23CC(NC(=O)COc4ccc(Cl)c(F)c4)(C2)C3)c1` [Compound 187, 3-[2-(4-chloro-3-fluorophenoxy)acetamido]-N-[(1S)-1-(3-methylphenyl)ethyl]bicyclo[1.1.1]pentane-1-carboxamide], for which the EC50 was over 2000 nM. Same read-out and setting: as for `O=C(COc1ccc(Cl)c(F)c1)NC12CC(C(=O)NCCc3c[nH]cn3)(C1)C2` [Compound 188, 3-[2-(4-chloro-3-fluorophenoxy)acetamido]-N-[2-(1H-imidazol-4-yl)ethyl]bicyclo[1.1.1]pentane-1-carboxamide], the figure is over 2000 nM; as for `Cc1cccc([C@@H](C)NC(=O)C23CC(NC(=O)COc4ccc(Cl)c(F)c4)(C2)C3)c1` [Compound 189, 3-[2-(4-chloro-3-fluorophenoxy)acetamido]-N-[(1R)-1-(3-methylphenyl)ethyl]bicyclo[1.1.1]pentane-1-carboxamide], over 2000 nM. As to `Cc1ccc(C)c(CNC(=O)C23CC(NC(=O)COc4ccc(Cl)c(F)c4)(C2)C3)c1` [Compound 190, 3-[2-(4-chloro-3-fluorophenoxy)acetamido]-N-[(2,5-dimethylphenyl)methyl]bicyclo[1.1.1]pentane-1-carboxamide], the EC50 was over 2000 nM. The same measure, in the same setting: the same measure for `O=C(COc1ccc(Cl)c(F)c1)NC12CC(C(=O)NCc3cn4ccccc4n3)(C1)C2` [Compound 191, 3-[2-(4-chloro-3-fluorophenoxy)acetamido]-N-[(imidazo[1,2-a]pyridin-2-yl)methyl]bicyclo[1.1.1]pentane-1-carboxamide]: 1000 to 2000 nM; for `Cc1ccsc1CNC(=O)C12CC(NC(=O)COc3ccc(Cl)c(F)c3)(C1)C2` [Compound 192, 3-[2-(4-chloro-3-fluorophenoxy)acetamido]-N-[(3-methylthiophen-2-yl)methyl]bicyclo[1.1.1]pentane-1-carboxamide]: over 2000 nM; for `O=C(COc1ccc(Cl)c(F)c1)NC12CC(C(=O)NCc3ccc(Cl)c(F)c3)(C1)C2` [Compound 193, 3-[2-(4-chloro-3-fluorophenoxy)acetamido]-N-[(4-chloro-3-fluorophenyl)methyl]bicyclo[1.1.1]pentane-1-carboxamide]: 250 to 500 nM. The same measure, in the same setting: as for `COc1ccc(CNC(=O)C23CC(NC(=O)COc4ccc(Cl)c(F)c4)(C2)C3)cc1` [Compound 195, 3-[2-(4-chloro-3-fluorophenoxy)acetamido]-N-[(4-methoxyphenyl)methyl]bicyclo[1.1.1]pentane-1-carboxamide], the figure is over 2000 nM; as for `Cn1cnc(CNC(=O)C23CC(NC(=O)COc4ccc(Cl)c(F)c4)(C2)C3)c1` [Compound 196, 3-[2-(4-chloro-3-fluorophenoxy)acetamido]-N-[(1-methyl-1H-imidazol-4-yl)methyl]bicyclo[1.1.1]pentane-1-carboxamide], over 2000 nM.

Broadly, the EC50 is the midpoint of the concentration-response curve.
